The text below walks through data of PubChem BioAssay (NCI).

Test systems include XF 498 CNS; LXFL 529 NSCLC; HOP-18 NSCLC; DLD-1 colon; SNB-78 CNS; DMS 273 small cell lung; RXF-631 renal; DMS 114 small cell lung; MDA-N.
Common to all, as to experiment: growth of human tumour cells (NCI), 48 h

Molecules are shown by their SMILES. Several values for one entry are separate records, joined by “and”; a condition that tells them apart may be missing. Equal entries are not always repeated.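 A five-concentration, 48-hour dose response in 96-well plates underlies each endpoint, interpolated linearly between surrounding concentrations. At the GI50, growth is halved. Definition used: TGI = concentration required for complete inhibition of growth.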 Bounds are passed on as bounds.

On to `CN(C)C(=S)/N=c1\ssc(=S)n1C`, for which the TGI with XF 498 CNS, with LXFL 529 NSCLC, in the assay on HOP-18 NSCLC, with DLD-1 colon, in the assay on SNB-78 CNS and with DMS 273 small cell lung was greater than 100 µM in each case. Moreover, the TGI in the assay with RXF-631 renal and with DMS 114 small cell lung was greater than 100 µM each time.
For the molecule `CC(=O)c1cccc(NC(=O)C(=O)c2c(O)c3ccccc3oc2=O)c1`, the TGI with MDA-N was greater than 100 µM.
`C=CC(C)(C)n1cc(C2=C(O)C(=O)C(c3cn(C(C)(C)C=C)c4ccccc34)=C(O)C2=O)c2ccccc21` showed a TGI in the assay on MDA-N of 4.98 µM.
In the case of `COC(=O)C(=O)C(CC(=O)Nc1ccc(C)cc1)C(=O)OC` (configuration not stated), the TGI in the assay on XF 498 CNS, in the assay with LXFL 529 NSCLC, with HOP-18 NSCLC, in the assay on DLD-1 colon, in the assay with SNB-78 CNS and in the assay with RXF-631 renal was greater than 100 µM each time. In addition, the TGI in the assay with DMS 114 small cell lung was greater than 100 µM.
As for `COC(=O)c1cc(=O)nc2cc3cccccc3n12`, the TGI with XF 498 CNS, in the assay with LXFL 529 NSCLC, in the assay on HOP-18 NSCLC and in the assay on DLD-1 colon was greater than 100 µM in each case.
Consider `C1=Cc2nc1c(-c1ccccc1)c1ccc([nH]1)c(-c1ccccc1)c1nc(c(-c3ccccc3)c3ccc([nH]3)c2-c2ccccc2)C=C1`, for which the TGI in the assay on LXFL 529 NSCLC, with HOP-18 NSCLC, in the assay with DLD-1 colon, in the assay with SNB-78 CNS, with DMS 273 small cell lung and in the assay with RXF-631 renal was greater than 100 µM in each case. Moreover, the TGI in the assay with DMS 114 small cell lung is greater than 100 µM.
Molecule `O=C1/C(=C\c2ccco2)Oc2ccccc21` showed a TGI in the assay with MDA-N greater than 100 µM.
Same read-out and setting: under `CO[C@H]1/C=C/O[C@@]2(C)Oc3c(C)c(O)c4c(O)c(c(/C=N/N5CCN(C)CC5)c(O)c4c3C2=O)NC(=O)/C(C)=C\C=C\[C@H](C)[C@H](O)[C@@H](C)[C@@H](O)[C@@H](C)[C@H](OC(C)=O)[C@@H]1C` stands greater than 100 µM.
`COc1ccccc1-c1cc(=O)c2cc(C)c(C)c(C(=O)O)c2o1`: the TGI with XF 498 CNS, with LXFL 529 NSCLC, in the assay on DLD-1 colon, in the assay with SNB-78 CNS, in the assay on DMS 273 small cell lung and in the assay with DMS 114 small cell lung was greater than 100 µM throughout.
On to `O=C1c2ccccc2C(=O)C12CCc1ccccc12`, for which the TGI in the assay on XF 498 CNS, in the assay on LXFL 529 NSCLC, with HOP-18 NSCLC, with DLD-1 colon, with SNB-78 CNS and with DMS 273 small cell lung was greater than 100 µM each time. Besides, the TGI with RXF-631 renal and in the assay with DMS 114 small cell lung was greater than 100 µM in each case.
For the molecule `O=[N+]([O-])c1cc([As](Br)c2ccc(O)c([N+](=O)[O-])c2)ccc1O`, in the assay on MDA-N, the TGI stood at 3.4 µM.
As to `COc1cc(C(=O)N[C@H]2CCc3cc(OC)c(OC)c(OC)c3-c3ccc(SC)c(=O)cc32)cc(OC)c1OC`, the GI50 with DLD-1 colon was 0.0234 µM. Moreover, the TGI in the assay with DLD-1 colon was 25 µM and > 100 µM; with DMS 273 small cell lung, greater than 100 µM; in the assay with RXF-631 renal, greater than 100 µM; in the assay with DMS 114 small cell lung it was 0.144 µM.
In the assay on MDA-N, `C=C1C(=O)OC2C1CCC(C)C1(O)C=CC(=O)C21C` (configuration not stated) showed a TGI greater than 10 µM.
Turning to `CCOc1ccc(N=C(NC(=O)c2ccccc2)SC)cc1`, the TGI in the assay on LXFL 529 NSCLC, in the assay with HOP-18 NSCLC, in the assay on DLD-1 colon, with SNB-78 CNS, with DMS 273 small cell lung and in the assay on DMS 114 small cell lung was greater than 100 µM each time.
On to `CC1(C)OC(=S)N(c2ccccc2)C12C=Cc1cc3ccccc3nc1S2` (configuration not stated), for which the TGI in the assay on XF 498 CNS is greater than 100 µM; in the assay on LXFL 529 NSCLC it was greater than 100 µM; with DLD-1 colon, 97 µM; in the assay with DMS 273 small cell lung, greater than 100 µM; in the assay on DMS 114 small cell lung, greater than 100 µM.
As to `O=C1CCC2(c3ccccc3)Nc3ccccc3N12` (configuration not stated), the TGI with XF 498 CNS, with LXFL 529 NSCLC, in the assay on DLD-1 colon, in the assay on SNB-78 CNS, in the assay on RXF-631 renal and in the assay on DMS 114 small cell lung was greater than 100 µM throughout.
In the case of `O=c1c2c(-c3ccccc3)c3ccccc3nc2cnn1-c1ccccc1`, the TGI with LXFL 529 NSCLC, with HOP-18 NSCLC, with SNB-78 CNS, in the assay with DMS 273 small cell lung and with DMS 114 small cell lung was greater than 100 µM in each case.
As for `CCC1=CCN(c2cc(C)ccn2)OC1c1ccccc1` (configuration not stated), the TGI in the assay on XF 498 CNS was 71.2 µM; with LXFL 529 NSCLC it was greater than 100 µM; in the assay with HOP-18 NSCLC, greater than 100 µM; with DLD-1 colon, greater than 100 µM; with SNB-78 CNS, greater than 100 µM; with DMS 273 small cell lung it was greater than 100 µM. The figures for the TGI in the assay on RXF-631 renal and in the assay on DMS 114 small cell lung were 73.1 µM and greater than 100 µM, respectively.
Consider `CC(=O)OC(C(=O)[O][Sn]([CH3])([CH3])[CH3])c1ccccc1` (configuration not stated), for which the GI50 in the assay on LXFL 529 NSCLC was 99.5 µM; in the assay on HOP-18 NSCLC it was greater than 100 µM; in the assay on DLD-1 colon, greater than 100 µM; in the assay on SNB-78 CNS it was greater than 100 µM; in the assay with RXF-631 renal, greater than 100 µM; in the assay on DMS 114 small cell lung, greater than 100 µM. Moreover, the TGI in the assay with LXFL 529 NSCLC, in the assay with HOP-18 NSCLC, with DLD-1 colon, with SNB-78 CNS, with RXF-631 renal and in the assay with DMS 114 small cell lung was greater than 100 µM each time.
`COC(=O)C(C(=O)C(=O)Nc1ccc(C)cc1C)c1csc(-n2nc(-c3ccccc3)cc2-c2ccccc2)n1` (configuration not stated): the TGI with XF 498 CNS, with LXFL 529 NSCLC, with HOP-18 NSCLC, with DLD-1 colon, with SNB-78 CNS and with DMS 273 small cell lung was greater than 100 µM throughout. The TGI in the assay on RXF-631 renal and in the assay with DMS 114 small cell lung was greater than 100 µM each time.
In turn, `COc1ccc2c(c1)CN([C@@H](C)[C@H]1CC[C@H]3[C@@H]4CC[C@H]5C[C@@H](O)CC[C@]5(C)[C@H]4CC[C@]13C)CO2` displayed a TGI in the assay with MDA-N of 3.38 µM.
